One experiment has as its target T1, acetylcholine esterase (Rattus norvegicus, UniProt P37136).
T1 construct: a centrifugation supernatant of a male Wistar rat cerebral homogenate as an acetylcholine esterase source; from tissue; host or cells: male Wistar rat cerebrum, Triton X-100 homogenate supernatant
T1 sequence (P37136 32-614): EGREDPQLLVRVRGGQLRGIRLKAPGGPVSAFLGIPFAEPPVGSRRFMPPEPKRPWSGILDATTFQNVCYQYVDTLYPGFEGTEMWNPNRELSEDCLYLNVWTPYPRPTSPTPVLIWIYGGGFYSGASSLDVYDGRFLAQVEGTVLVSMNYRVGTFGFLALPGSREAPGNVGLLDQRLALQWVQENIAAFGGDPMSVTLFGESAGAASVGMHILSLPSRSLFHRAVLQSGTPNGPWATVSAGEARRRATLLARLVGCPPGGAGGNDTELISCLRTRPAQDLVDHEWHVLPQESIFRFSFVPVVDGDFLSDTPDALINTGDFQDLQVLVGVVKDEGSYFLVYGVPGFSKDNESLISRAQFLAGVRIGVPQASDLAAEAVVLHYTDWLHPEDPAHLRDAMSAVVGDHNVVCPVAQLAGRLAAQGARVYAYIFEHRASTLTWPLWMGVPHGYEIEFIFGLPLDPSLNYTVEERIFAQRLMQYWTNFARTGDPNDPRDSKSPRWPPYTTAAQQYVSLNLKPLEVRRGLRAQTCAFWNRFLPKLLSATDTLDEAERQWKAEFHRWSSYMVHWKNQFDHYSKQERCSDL
Briefly: Acetylcholine esterase inhibitory activity (Ellman method). It is filed as biochemical. Particulars: supernatant of male Wistar rat cerebral homogenate; acetylthiocholine/DTNB, absorbance 412 nm; read-out: Acetylcholine esterase inhibition (IC50). Here is the method:
Esterase activity was measured according to the method of Ellman et al. (Biochem. Pharmacol., 1961, 7, 88-95) using a centrifugation supernatant of a male Wistar rat cerebral homogenate as an acetylcholine esterase source. First, a sample dissolved in dimethyl sulfoxide (DMSO) (10 mM) was dissolved in water to 30 μM, and eight serial dilutions were prepared at a common ratio of 3 with 30 μM as a highest concentration. Next, 18 times weight of a phosphate buffer [0.1 M phosphate buffer (0.1 M Na2HPO4, prepared from 0.1 M KH2PO4; pH 8.0) with 0.5% Triton X-100] was added to the rat cerebrum. The mixture was homogenized and centrifuged at 3000 rpm for five minutes. The supernatant was diluted 30-fold with a phosphate buffer (pH 8.0) and dispensed to a 96-well plate at 165 μL/well. 6 μL of the diluted sample was added, followed by preincubation at room temperature for about 10 minutes. Thereafter, 9 μL of a reaction mixture [10 mM 5,5′-dithiobis(2-nitrobenzoic acid) (DTNB)/0.1 M phosphate buffer (pH 7.0) with 6 μL of 0.15% NaHCO3+90 mM acetylthiocholine iodide/1 μL of H2O+2 μL of 0.1 M phosphate buffer (pH 8.0)] was added and the absorbance (412 nm) of anions (yellow) of 5-thio-2-nitrobenzoic acid generated by reaction of the produced thiocholine with DTNB anions was measured at room temperature. The acetylcholine esterase activity was determined from the change in absorbance between two minutes and four minutes after the start of the reaction. The inhibition rate (%) of the test compound was determined based on the acetylcholine esterase activity when the compound was not added as 100% and the 50% inhibition concentration (IC50) was calculated.
A general note: DTNB colorimetry detects thiols as they appear.

Experiment [1] concerns the target T2, serotonin transporter (SERT) (Rattus norvegicus, UniProt P31652).
T2 construct: The rat cerebral cortex was homogenized in ice-cold 0.32 M sucrose; from tissue; host or cells: rat cerebral cortex membrane fraction
The experiment in a line: Serotonin transporter binding inhibitory activity ([3H]paroxetine binding, rat cerebral cortex membrane fraction). Here is the method: Affinity of the test substance to a serotonin transporter (SERT) was determined by a test of inhibition of binding of [^3H]paroxetine selectively binding to SERT to a rat cerebral cortex membrane fraction by the test substance. Serotonin reuptake inhibitors are generally known to have SERT binding inhibitory activity. Based on the assumption that the intensity of SERT binding inhibitory activity of the test substance indicates the intensity of reuptake inhibitory activity, affinity of the test substance to SERT was determined and the intensity of the activity was estimated (according to the method described in Marcusson, J.; Eriksson, K; J. Neurochemistry, 1988, 51 (5), 1477).
The rat cerebral cortex was homogenized in ice-cold 0.32 M sucrose. The suspension was centrifuged at 1,000×g for 10 minutes. The resulting supernatant was further centrifuged at 20,000×g for 20 minutes. The resulting precipitate was suspended in 50 mM Tris-HCl (pH 7.4) containing 120 mM NaCl and 5 mM KCl (hereinafter called suspension A) and centrifuged at 20,000×g for 20 minutes. The same operation was repeated once more. The finally obtained precipitate was suspended in a suspension A having a wet weight about 100 times that of the rat cerebral cortex to prepare a membrane fraction which was stored at −80° C. until use.
An incubation mixture (0.5 mL) contained a solution obtained by further diluting the test substance dissolved in DMSO (dimethyl sulfoxide) to a desired concentration (control: only DMSO) 500-fold with purified water (25 μL); a [^3H]paroxetine solution (final concentration: 0.05 nM) as a ligand (25 μL); and the membrane fraction prepared as described above (450 μL). The reaction was started by addition of the membrane fraction, followed by incubation at room temperature for 90 minutes. After the incubation, the mixture was filtered by suction through a GF/B filter using a cell harvester. The filter was washed with 50 mM Tris-HCl (pH 7.4) and then radioactivity of [^3H]paroxetine binding to SERT was measured using a liquid scintillation counter. Binding detected in the presence of 1 or 10 μM fluoxetine was defined as non-specific binding.

Broadly, the pIC50 is −log10 of the IC50, conventionally taken in molar units.

pIC50: −log10 of the molar value. Counter-ions that a name gives are not always drawn.

T2 sequence (P31652 whole entry): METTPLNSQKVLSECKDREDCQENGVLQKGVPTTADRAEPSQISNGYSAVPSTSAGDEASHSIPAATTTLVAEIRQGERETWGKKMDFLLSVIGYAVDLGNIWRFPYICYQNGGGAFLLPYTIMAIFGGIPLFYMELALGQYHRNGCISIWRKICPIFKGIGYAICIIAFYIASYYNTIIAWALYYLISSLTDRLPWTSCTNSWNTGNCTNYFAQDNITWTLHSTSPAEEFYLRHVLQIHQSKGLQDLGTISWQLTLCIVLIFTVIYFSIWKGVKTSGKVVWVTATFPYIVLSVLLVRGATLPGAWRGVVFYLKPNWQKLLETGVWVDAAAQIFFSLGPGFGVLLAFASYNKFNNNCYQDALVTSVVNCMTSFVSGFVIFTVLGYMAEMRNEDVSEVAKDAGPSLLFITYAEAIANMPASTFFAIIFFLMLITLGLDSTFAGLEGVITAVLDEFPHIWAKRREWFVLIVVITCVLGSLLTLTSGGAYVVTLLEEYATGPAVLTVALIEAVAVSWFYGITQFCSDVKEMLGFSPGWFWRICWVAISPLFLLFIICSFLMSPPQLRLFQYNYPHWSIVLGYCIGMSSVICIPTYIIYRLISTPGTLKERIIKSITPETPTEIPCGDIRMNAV

With `CN(C)Cc1c(OCc2ccc(F)cc2)ccc2c(CCC3CCN(CC4OCCO4)CC3)noc12` [Example 22, N,N-Dimethyl{3-{2-[1-(1,3-dioxolan-2-ylmethyl)piperidin-4-yl]ethyl}-6-(4-fluorobenzyloxy)benz[d]isoxazol-7-yl}methylamine dihydrobromide], the pIC50 on acetylcholine esterase is 8.39; in experiment [1], 8.80.
In the same order, the values of `CN(C)Cc1c(OCC2CC2)ccc2c(CCC3CCN(Cc4ccccc4)CC3)noc12` [Example 39, N,N-Dimethyl{6-cyclopropylmethoxy-3-[2-(1-benzylpiperidin-4-yl)ethyl]benz[d]isoxazol-7-yl}methylamine dihydrochloride] are 9.40 and 7.89.
In the same order, the values of `CN(C)Cc1c(OCC2CC2)ccc2c(CCC3CCN(CC4(CO)CCCC4)CC3)noc12` [Example 51, {1-{4-{2-[6-Cyclopropylmethoxy-7-(N,N-dimethylaminomethyl)benz[d]isoxazol-3-yl]ethyl}piperidinomethyl}cyclopentyl}methanol dihydrochloride] are 8.44 and 8.72.
On the same counts, the results for `CNCc1c(OCc2ccc(F)cc2)ccc2c(CCC3CCN(CC4OCCO4)CC3)noc12` [Example 78, N-Methyl{3-{2-[1-(1,3-dioxolan-2-ylmethyl)piperidin-4-yl]ethyl}-6-(4-fluorobenzyloxy)benz[d]isoxazol-7-yl}methylamine dihydrochloride] are 9.15 and 8.96.
Consider `CN(C)Cc1c(OCC2CC2)ccc2c(CCC3CCN(Cc4c[nH]c5ccc(F)cc45)CC3)noc12` [Example 88, N,N-Dimethyl{6-cyclopropylmethoxy-3-{2-[1-(5-fluoro-1H-indol-3-ylmethyl)piperidin-4-yl]ethyl}benz[d]isoxazol-7-yl}methylamine dihydrochloride], for which the pIC50 was 8.11 on acetylcholine esterase and 8.28 in experiment [1].
On the same counts, the results for `CN(C)Cc1c(OCC2CC2)ccc2c(CCC3CCN(CC4CCCc5sccc54)CC3)noc12` (centres unmarked) [Example 93, N,N-Dimethyl{6-cyclopropylmethoxy-3-{2-[1-(4,5,6,7-tetrahydrobenzo[b]thiophen-4-ylmethyl)piperidin-4-yl]ethyl}benz[d]isoxazol-7-yl}methylamine dihydrochloride] are 7.14 and 8.05.
With `N#Cc1ccc(CN2CCC(CCc3noc4c(CN5CCC5)c(OCC5CC5)ccc34)CC2)s1` [Example 118, 5-{4-{2-[7-(Azetidin-1-ylmethyl)-6-cyclopropylmethoxybenz[d]isoxazol-3-yl]ethyl}piperidinomethyl}thiophene-2-carbonitrile fumarate], the pIC50 on acetylcholine esterase is 7.92; in experiment [1], 8.00.
In the same order, the values of `CN(C)Cc1c(-c2ccccc2)ccc2c(CCC3CCN(Cc4ccccc4)CC3)noc12` [Example 120, N,N-Dimethyl{3-[2-(1-benzylpiperidin-4-yl)ethyl]-6-phenylbenz[d]isoxazol-7-yl}methylamine dihydrochloride] are 8.89 and 9.05.
For `CN(C)Cc1c2ccccc2cc2c(CCC3CCN(Cc4ccc(C#N)s4)CC3)noc12` [Example 151, 5-{4-{2-[9-(N,N-Dimethylaminomethyl)naphtho[2,3-d]isoxazol-3-yl]ethyl}piperidinomethyl}thiophene-2-carbonitrile dihydrochloride], the pIC50 is 7.48 on acetylcholine esterase and 7.27 in experiment [1].
For the compound `CNCc1c2ccccc2cc2c(CCC3CCN(Cc4ccc(C#N)s4)CC3)noc12` [Example 152, 5-{4-{2-[9-(N-Methylaminomethyl)naphtho[2,3-d]isoxazol-3-yl]ethyl}piperidinomethyl}thiophene-2-carbonitrile dihydrochloride], the pIC50 at acetylcholine esterase is 8.31; in experiment [1] it was 8.00.
Take `CN(C)Cc1c(OCc2ccc(C#N)cc2)ccc2c(CCC3CCN(Cc4ccccc4)CC3)noc12` [Example 153, 4-{3-[2-(1-Benzylpiperidin-4-yl)ethyl]-7-(N,N-dimethylaminomethyl)benz[d]isoxazol-6-yloxymethyl}benzonitrile dihydrochloride]: the pIC50 at acetylcholine esterase is 9.40; in experiment [1] it was 9.52.
With `CN(C)Cc1c(OCc2ccc(C#N)cc2)ccc2c(CCC3CCN(CC4OCCO4)CC3)noc12` [Example 154, 4-{7-(N,N-Dimethylaminomethyl)-3-{2-[1-(1,3-dioxolan-2-ylmethyl)piperidin-4-yl]ethyl}benz[d]isoxazol-6-yloxymethyl}benzonitrile fumarate], the figures for the pIC50 (at acetylcholine esterase; in experiment [1]) were 8.52 and 9.00, respectively.
In the same order, the values of `CN(C)Cc1c(OCC2CC2)ccc2c(CCC3CCN(Cc4ccc(C#N)s4)CC3)noc12` [Example 155, 5-{4-{2-[6-Cyclopropylmethoxy-7-(N,N-dimethylaminomethyl)benz[d]isoxazol-3-yl]ethyl}piperidinomethyl}thiophene-2-carbonitrile dihydrochloride] are 8.30 and 8.28.
On the same counts, the results for `CN(C)Cc1ccc2c(CCC3CCN(Cc4ccccc4)CC3)noc2c1OCC1CC1` [Example 178, N,N-Dimethyl{3-[2-(1-benzylpiperidin-4-yl)ethyl]-7-cyclopropylmethoxybenz[d]isoxazol-6-yl}methylamine dihydrochloride] are 8.39 and 7.21.
On the same counts, the results for `CN(C)Cc1c(N2CCCCC2)ccc2c(CCC3CCN(Cc4ccc(C#N)s4)CC3)noc12` [Example 210, 5-{4-{2-[7-(N,N-Dimethylaminomethyl)-6-piperidinobenz[d]isoxazol-3-yl]ethyl}piperidinomethyl}thiophene-2-carbonitrile dihydrochloride] are 8.62 and 7.92.
In the case of `CN(C)Cc1c(N2CCOCC2)ccc2c(CCC3CCN(Cc4ccc(C#N)s4)CC3)noc12` [Example 213, 5-{4-{2-[7-(N,N-Dimethylaminomethyl)-6-morpholinobenz[d]isoxazol-3-yl]ethyl}piperidinomethyl}thiophene-2-carbonitrile dihydrochloride], the values for the pIC50 (on acetylcholine esterase; in experiment [1]) were 8.52 and 7.72, respectively.

The values are drawn from US20090318690A1 (priority 2006, published 2009).
